# Source: patent US20030073695A1, “Methods of use of gemifloxacin compounds against fluoroquinolone resistant Streptococcus pneumoniae bacteria” (priority 2000, published 2003)
# Assays:
# [1] = test system: S. pneumoniae with reduced susceptibility to CIP; assay: MIC by NCCLS microbroth dilution, 80 clinical isolates with CIP MIC ≧2 μg/ml; type: cell-based; details: Streptococcus pneumoniae, 80 isolates with CIP MICs ≧2 μg/ml
# Experimental: MICs to penicillin (herein “PEN”), CIP, levofloxacin (herein “LEV”), TFX, moxifloxacin (herein “MOX”), grepafloxacin (herein “GRE”), gatifloxacin (herein “GAT”), sparfloxacin (herein “SPA”), and gemifloxacin (herein “GFX”) were determined using a microbroth dilution technique described by the NCCLS. Topoisomerase IV (parC) and DNA gyrase (gyrA) mutations were confirmed by sequencing the QRDR region of each gene. Serotyping and PFGE were performed on all isolates. […] Breakpoints have not been established for all fluoroquines, thus percentage resistance was not calculated.
# [2] = test system: CFX and TFX susceptible and resistant S. pneumoniae; assay: Postantibiotic effect (PAE), 2 hour exposure, viable colony counting; type: cell-based, Streptococcus pneumoniae; details: for mean PAE at 4× MIC: exposure 2 hours at 4× MIC; for mean PAE at 10× MIC: exposure 2 hours at 10× MIC
# Experimental: This invention was based, in part, on analyses evaluating the comparative activity of gemifloxacin against various strains of S. pneumoniae.
# MICs were determined using a microbroth dilution technique described by the NCCLS. Topisomeriase IV (parC) and DNA gyrase (gyrA) mutations were confirmed by sequencing the QRDR region of each gene. […] Antibiotics were removed using dilution into sterile media and the PAE assessed using a viable colony counting technique.
# [3] = GFX, isolates not restricted to susceptible
# [4] = isolates susceptible to the tested drug
SMILES,MIC50 ([1]; MIC50 of Table 1),MIC50 ([1]; Table 1 MIC50),MIC [1],"mean PAE at 4× MIC [2, 3]","mean PAE at 10× MIC [2, 3]",difference in duration of PAE between CFX or TFX susceptible and resistant strains ([2]; p<0.05),"mean PAE at 4× MIC [2, 4]","mean PAE at 10× MIC [2, 4]"
"CO/N=C1\CN(c2nc3c(cc2F)c(=O)c(C(=O)O)cn3C2CC2)CC1CN (racemic) [GFX, (R,S)-7-(3-aminomethyl-4-methoxyiminopyrrolidin-1-yl)-1-cyclopropyl-6-fluoro-4-oxo-1,4-dihydro-1,8-naphthyridine-3-carboxylic acid]",0.06 µg/mL,0.25 µg/mL,0.03 to 0.5 µg/mL,2.7 h,3.8 h,no significant difference,–,–
"C[C@H]1COc2c(N3CCN(C)CC3)c(F)cc3c(=O)c(C(=O)O)cn1c23 [LEV, levofloxacin]",2 µg/mL,16 µg/mL,1 to 32 µg/mL,–,–,–,–,–
"N[C@@H]1[C@H]2CN(c3nc4c(cc3F)c(=O)c(C(=O)O)cn4-c3ccc(F)cc3F)C[C@@H]12 [TFX, trovafloxacin]",0.5 µg/mL,4 µg/mL,0.06 to 8 µg/mL,–,–,–,2.1 h,3.2 h

# Now from value to compound, other results behind:
MIC50 ([1]; MIC50 of Table 1),MIC50 ([1]; Table 1 MIC50),MIC [1],"mean PAE at 4× MIC [2, 3]","mean PAE at 10× MIC [2, 3]",SMILES,difference in duration of PAE between CFX or TFX susceptible and resistant strains ([2]; p<0.05),"mean PAE at 4× MIC [2, 4]","mean PAE at 10× MIC [2, 4]"
0.25 µg/mL,2 µg/mL,0.12 to 4 µg/mL,–,–,"COc1c(N2C[C@@H]3CCCN[C@@H]3C2)c(F)cc2c(=O)c(C(=O)O)cn(C3CC3)c12 [MOX, moxifloxacin]",–,–,–
0.5 µg/mL,4 µg/mL,0.25 to 8 µg/mL,–,–,"COc1c(N2CCNC(C)C2)c(F)cc2c(=O)c(C(=O)O)cn(C3CC3)c12 (centres unmarked) [GAT, gatifloxacin]",–,–,–
0.5 µg/mL,8 µg/mL,0.12 to 8 µg/mL,–,–,"Cc1c(F)c(N2CCNC(C)C2)cc2c1c(=O)c(C(=O)O)cn2C1CC1 (centres unmarked) [GRE, grepafloxacin]",–,–,–
0.5 µg/mL,16 µg/mL,0.25 to 32 µg/mL,–,–,"C[C@@H]1CN(c2c(F)c(N)c3c(=O)c(C(=O)O)cn(C4CC4)c3c2F)C[C@H](C)N1 [SPA, sparfloxacin]",–,–,–
